Source: patent US5192668A, “Synthesis of protease inhibitor” (Merck & Co., Inc., priority 1992, dated 1993)

Molecular target: T1, HIV protease (Human immunodeficiency virus type 1 group M subtype B, UniProt P12497)
T1 construct: HIV protease expressed in Escherichia coli; made in house; host or cells: Escherichia coli
Assay: Assay for Inhibition of Recombinant HIV Protease (APRIN 2.1)
Type: biochemical
Conditions: Conc. 1 ng/ml; read-out: APRIN 2.1 Act. (% Inhib.)
Description: Assay for Inhibition of Recombinant HIV Protease (APRIN 2.1)
Inhibition studies were performed on the reaction of the HIV protease expressed in Escherichia coli with a tritiated peptide substrate, [^3 H]-acetyl-Val-Ser-Gln-Asn-(beta-napthyl-Ala)-Pro-Ile-Val-Gln-Gly-Arg -Arg-NH2 (MW 1800). The two arginine residues at the carboxyl terminus give this peptide an overall positive charge at acidic pH and enable it to bind to the H^+ form of DOWEX AG-50W-X8 resin and similar resins.
Aliquots of 25 μl containing 6.0-8.0 nM HIV protease in assay buffer (100 mM sodium acetate, pH 5.5 and 0.1% BSA) are placed in assay tubes. The reaction is initiated by addition of 25 μl aliquots of 4.2 μM tritiated peptide substrate in 100 mM sodium acetate, pH 5.5. After incubation for 60 min at 37° C., the reaction is stopped with 100 μl of 5% H3 PO4, then analysed by application of column chromatography.

SMILES: CC(C)(C)OC(=O)N[C@@H](Cc1ccccc1)[C@@H](O)C[C@@H](Cc1ccc(OCC(=O)O)cc1)C(=O)N[C@H]1c2ccccc2C[C@H]1O [L-694,746]
- inhibition at 0.001 µg/mL: 88%
